Earlier results as cited in patent publication US20060183185A1, “Method for the synthesis of astaxanthin” (priority 2004, published 2006).

Settings: liposome systems; appropriate dose

CC1=C(/C=C/C(C)=C/C=C/C(C)=C/C=C/C=C(C)/C=C/C=C(C)/C=C/C2=C(C)C(=O)C(O)CC2(C)C)C(C)(C)CC(O)C1=O (stereo not shown) [astaxanthin]
suppression of the peroxyl radical chain reaction: completely suppress
